Reference: patent US20070031511A1, “Method of treatment” (priority 2003, published 2007)
“Also recorded” adds a separate entry of the source.

Columns and labels:
IMGE-5 cells [1] = experiment: Wound healing / cell migration assay; format: cell-based, mice; conditions: for Stimulation of IMGE-5 cell migration: wound healing assay, fragments and mutants shown at 1 nM (FIGS. 7B, 8B)
Outline: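 Murine gastric IMGE-5 cells at 80% confluence were shifted to 39 °C (non-permissive), serum-starved 24 h, then scratch-wounded. They were treated with or without compound in serum-free DMEM. Wound width was measured at six positions after 24 h and averaged.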

CCK-2 receptor [2] = biological target: T1, CCK-2 receptor (Homo sapiens, UniProt P32239); experiment: Gamide-stimulated inositol phosphate production in COS-7 cells transfected with the CCK-2 receptor; format: cell-based; set-up: COS-7 cells transiently transfected with CCK-2 receptor cDNA; expressed in transfected cells; host or cells: COS-7
T1 sequence (P32239 1-447): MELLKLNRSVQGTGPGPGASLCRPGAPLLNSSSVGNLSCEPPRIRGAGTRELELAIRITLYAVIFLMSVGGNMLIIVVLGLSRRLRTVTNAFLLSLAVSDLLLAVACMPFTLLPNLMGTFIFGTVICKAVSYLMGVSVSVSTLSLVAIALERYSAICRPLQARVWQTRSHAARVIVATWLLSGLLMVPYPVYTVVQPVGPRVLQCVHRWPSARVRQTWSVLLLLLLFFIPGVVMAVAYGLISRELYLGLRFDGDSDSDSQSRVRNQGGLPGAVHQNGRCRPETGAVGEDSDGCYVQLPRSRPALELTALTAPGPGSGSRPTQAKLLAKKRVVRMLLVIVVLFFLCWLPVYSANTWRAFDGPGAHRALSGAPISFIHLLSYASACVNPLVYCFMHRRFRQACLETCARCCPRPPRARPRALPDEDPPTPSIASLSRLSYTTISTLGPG
Protocol: Intracellular inositol phosphate production was determined as described previously (Qian et al, 1993). IMGE-5 cells (10^5 cells/ml) were plated in 24-multiwell culture plates in DMEM supplemented with 10% FBS, 200 IU/ml penicillin and 200 μg/ml streptomycin. 24 h later, cells were incubated with DMEM supplemented with antibiotics and Myo-[2-^3H]inositol (2.5 μCi/well) and shifted to 39° C. for 16 h. Cells were then washed with pre-warmed DMEM and incubated (20-30 minutes, 37° C.) with DMEM supplemented with 20 mM LiCl. Loaded cells were then washed in 1 ml of IP buffer (135 mM NaCl, 20 mM N-(2-hydroxyethyl)piperazine-N′-(2-ethanesulfonic acid), 2 mM CaCl2, 1.2 mM MgSO4, 1 mM ethylene glycol-bis(2-aminoethylether)-N,N,N′,N′-tetraacetic acid, 10 mM LiCl, and 0.5% bovine serum albumin, pH 7.45) and incubated with or without agonist in a final volume of 0.5 ml of IP buffer. After 1-h incubation at 37° C., the reaction was stopped by removing the incubation medium and adding 1 ml of a mixture of ethanol/HCl (2000:1; v/v). One ml of each aliquot was applied to a column containing 1.6 ml of a 1:2 (v/v) Dowex AG-1-X8 anion exchange resin in distilled water. The columns were washed with 4 ml of distilled water, followed by 4 ml of 40 mM HCOONH4, and inositol phosphates were eluted with 4 ml of 1 M HCOONH4. The radioactivity of each eluate was counted after addition of Complete phase combining system solution (Amersham, UK). For the positive control, IMGE-5 cells were incubated with a combination of 30 mM NaF and 10 μM AlCl3 under the same experimental conditions.
Gamide-stimulated inositol phosphate production was measured in COS-7 cells transfected with the CCK-2 receptor. […] Bismuth ions alone had no effect on inositol phosphate production in CCK-2 receptor-transfected COS-7 cells and HT29 cells, even at the highest concentration tested.
We then investigated the role of the individual glutamates in biological activity. The effects of the mutants GamideE7A and GamideE8,9A on inositol phosphate production in COS-7 cells transiently transfected with the CCK-2 receptor were compared.

IMGE-5 cells [3] = experiment: IMGE-5 cell proliferation, MTT assay; format: cell-based, mice; conditions: for Mean Response ± SEM (% Control), proliferation of IMGE cells: treatment alone: 10 nM Ggly, 32 mol/mol Bi without Ggly, fetal calf serum positive control
CCK-2 receptor [4] = biological target: T1, CCK-2 receptor; experiment: [125I]-BH-CCK8 displacement, CCK-2 receptor on transiently transfected COS-7 cells; format: binding; set-up: COS-7 cells transiently transfected with CCK-2 receptor cDNA; expressed in transfected cells; host or cells: COS-7
Protocol: Non-specific binding was evaluated with […] of unlabelled CCK8. Incubation was stopped by adding 2 ml of ice-cold PBS containing 2% bovine serum albumin. After centrifugation, supernatants were removed and the radioactivity bound to the cell membranes was measured in a γ-counter (LKB, Wallac, Finland).
The lines of best fit shown in FIG. 21 were obtained by nonlinear regression to a single site model with the program Sigmaplot.

[5] = tested on: AGS gastric carcinoma cells; experiment: AGS cell proliferation, MTT assay; format: cell-based, human; conditions: treatment alone: 10 nM Ggly; 32 mol/mol Bi without Ggly; fetal calf serum positive control

| Increase in inositol phosphate production (CCK-2 receptor [2]; COS-7 cells transfected with the CCK-2 receptor, 10 μM AlF4−, 10 nM Gamide) | % Maximum Binding (COS-7) (CCK-2 receptor [4]; binding in the absence of competitor, fitted, mean ± S.E.) | % Maximum Binding (COS-7) (CCK-2 receptor [4]; presence and absence of 1 μM DFO) | Predicted ordinate intercept, FIG. 21 (CCK-2 receptor [4]; single experiment) | Ordinate intercept, FIG. 24A (CCK-2 receptor [4]; single experiment, presence and absence of 1 μM DFO) | Effect on Gamide-induced inositol phosphate production (CCK-2 receptor [2]; 2, 8, and 32 moles Bi3+/mole Gamide, 10 nM Gamide) | Effect of bismuth ions alone on inositol phosphate production (CCK-2 receptor [2]; CCK-2 receptor-transfected COS-7 cells, highest concentration tested) | Effect on binding of CCK8 to the CCK-2 receptor (CCK-2 receptor [4]; 2, 8 or 32 moles/mole, transfected COS-7 cells (FIG. 16)) | Molecule | Stimulation of IMGE-5 cell migration (IMGE-5 cells [1]) | Stimulation of inositol phosphate production (CCK-2 receptor [2]; 10 nM peptide) | Increase in proliferation of IMGE-5 (IMGE-5 cells [3]) | Effect on Ggly-induced migration of IMGE-5 cells (IMGE-5 cells [1]; 2, 8 or 32 moles/mole Ggly, 10 nM Ggly, 17 or 24 hours) | Effect of bismuth ions alone on migration (IMGE-5 cells [1]; maximum concentration tested, without Ggly) | Mean Response ± SEM (% Control), proliferation of AGS cells [5] | Mean Response ± SEM (% Control), proliferation of IMGE cells (IMGE-5 cells [3]) |
| --- | --- | --- | --- | --- | --- | --- | --- | --- | --- | --- | --- | --- | --- | --- | --- |
| 4 fold | 94.2 ± 2.4% | 81.1 ± 1.7% | 86.1% | 81.1% | – | – | – | CSCC[C@H](NC(=O)[C@H](Cc1c[nH]c2ccccc12)NC(=O)CNC(=O)[C@H](Cc1ccc(O)cc1)NC(=O)[C@H](C)NC(=O)[C@H](CCC(=O)O)NC(=O)[C@H](CCC(=O)O)NC(=O)[C@H](CCC(=O)O)NC(=O)[C@H](CCC(=O)O)NC(=O)[C@H](CCC(=O)O)NC(=O)[C@H](CC(C)C)NC(=O)[C@H](Cc1c[nH]c2ccccc12)NC(=O)[C@@H]1CCCN1C(=O)CNC(=O)[C@@H]1CCC(=O)N1)C(=O)N[C@@H](CC(=O)O)C(=O)N[C@@H](Cc1ccccc1)C(N)=O [Gamide] | did not stimulate IMGE-5 cell migration; also recorded: inactive | No significant difference was observed in the extent of stimulation | 2 fold | – | – | – | – |
| – | – | – | – | – | no significant effect | no effect | no effect | [Bi+3] [bismuth ions] | – | – | – | completely blocked | no effect | 102.2 ± 4.2 % Control | 97.9 ± 2.5 % Control |
| – | – | – | – | – | – | – | – | Ggly: glycine-extended gastrin17, 18 amino acid non-amidated gastrin, SEQ ID NO:4, residues 55-72 of progastrin (XGPWLEEEEEAYGWMDFG; (1)..(1) pyroglutamate; listed as Homo sapiens) | considerably reduced wound size | – | 2 fold | – | – | 126.0 ± 2.3 % Control | 135.7 ± 3.6 % Control |
